Results published in PubChem BioAssay (NCI).
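Tested at 5 concentrations; 48 h exposure; 96-well plates; endpoints linearly interpolated, else capped at highest concentration. TGI denotes the concentration required for complete inhibition of growth.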

Key:
Experiment in all cases: DTP human tumour cell line panel, 48 h
MDA-MB-435 = tested on: MDA-MB-435
A498 renal = tested on: A498 renal
SK-MEL-2 melanoma = tested on: SK-MEL-2 melanoma
UACC-62 melanoma = tested on: UACC-62 melanoma
NCI-H23 lung = tested on: NCI-H23 lung
HCC-2998 colon = tested on: HCC-2998 colon
CCRF-CEM leukemia = tested on: CCRF-CEM leukemia
SF-295 CNS = tested on: SF-295 CNS
KM12 colon = tested on: KM12 colon
EKVX NSCLC = tested on: EKVX NSCLC
HL-60(TB) leukemia = tested on: HL-60(TB) leukemia
K-562 leukemia = tested on: K-562 leukemia
TK-10 renal = tested on: TK-10 renal
UACC-257 melanoma = tested on: UACC-257 melanoma
T-47D breast = tested on: T-47D breast
SK-OV-3 ovarian = tested on: SK-OV-3 ovarian
NCI-H522 lung = tested on: NCI-H522 lung
COLO 205 colon = tested on: COLO 205 colon
HOP-92 NSCLC = tested on: HOP-92 NSCLC
MOLT-4 leukemia = tested on: MOLT-4 leukemia
MCF7 breast = tested on: MCF7 breast
RXF 393 renal = tested on: RXF 393 renal
CAKI-1 renal = tested on: CAKI-1 renal
SR leukemia = tested on: SR leukemia
IGROV1 ovarian = tested on: IGROV1 ovarian
MALME-3M melanoma = tested on: MALME-3M melanoma
OVCAR-8 ovarian = tested on: OVCAR-8 ovarian
OVCAR-5 ovarian = tested on: OVCAR-5 ovarian
A549 NSCLC = tested on: A549 NSCLC
SK-MEL-5 melanoma = tested on: SK-MEL-5 melanoma
LOX IMVI melanoma = tested on: LOX IMVI melanoma
OVCAR-4 ovarian = tested on: OVCAR-4 ovarian
NCI-H226 lung = tested on: NCI-H226 lung
SF-268 CNS = tested on: SF-268 CNS
786-0 renal = tested on: 786-0 renal
HOP-62 NSCLC = tested on: HOP-62 NSCLC
SF-539 CNS = tested on: SF-539 CNS
NCI/ADR-RES ovarian = tested on: NCI/ADR-RES ovarian
HS 578T breast = tested on: HS 578T breast
UO-31 renal = tested on: UO-31 renal
MDA-MB-231 breast = tested on: MDA-MB-231 breast
HCT-116 colon = tested on: HCT-116 colon
M14 melanoma = tested on: M14 melanoma
HCT-15 colon = tested on: HCT-15 colon
RPMI-8226 leukemia = tested on: RPMI-8226 leukemia
MDA-N = tested on: MDA-N
SW-620 colon = tested on: SW-620 colon
HT29 colon = tested on: HT29 colon
BT-549 breast = tested on: BT-549 breast
SNB-75 CNS = tested on: SNB-75 CNS
SN12C renal = tested on: SN12C renal
DU-145 prostate = tested on: DU-145 prostate
OVCAR-3 ovarian = tested on: OVCAR-3 ovarian
SNB-19 CNS = tested on: SNB-19 CNS
ACHN renal = tested on: ACHN renal
U251 CNS = tested on: U251 CNS
PC-3 prostate = tested on: PC-3 prostate
SK-MEL-28 melanoma = tested on: SK-MEL-28 melanoma

CC1OC(n2cnc3c(N)nc(Cl)nc32)C(C)(O)C1O (stereo not drawn)
TGI (MDA-MB-435): > 25 µM | TGI (A498 renal): > 25 µM | TGI (SK-MEL-2 melanoma): > 25 µM | TGI (UACC-62 melanoma): > 25 µM | TGI (NCI-H23 lung): > 25 µM | TGI (HCC-2998 colon): > 25 µM | TGI (CCRF-CEM leukemia): > 25 µM | TGI (SF-295 CNS): > 25 µM | TGI (KM12 colon): > 25 µM | TGI (EKVX NSCLC): > 25 µM | TGI (HL-60(TB) leukemia): > 25 µM | TGI (K-562 leukemia): > 25 µM | TGI (TK-10 renal): > 25 µM | TGI (UACC-257 melanoma): > 25 µM | TGI (T-47D breast): > 25 µM | TGI (SK-OV-3 ovarian): > 25 µM | TGI (NCI-H522 lung): > 25 µM | TGI (COLO 205 colon): > 25 µM | TGI (HOP-92 NSCLC): > 25 µM | TGI (MOLT-4 leukemia): > 25 µM | TGI (MCF7 breast): > 25 µM | TGI (RXF 393 renal): > 25 µM | TGI (CAKI-1 renal): > 25 µM | TGI (SR leukemia): > 25 µM | TGI (IGROV1 ovarian): > 25 µM | TGI (MALME-3M melanoma): > 25 µM | TGI (OVCAR-8 ovarian): > 25 µM | TGI (OVCAR-5 ovarian): > 25 µM | TGI (A549 NSCLC): > 25 µM | TGI (SK-MEL-5 melanoma): > 25 µM | TGI (LOX IMVI melanoma): > 25 µM | TGI (OVCAR-4 ovarian): > 25 µM | TGI (NCI-H226 lung): > 25 µM | TGI (SF-268 CNS): > 25 µM | TGI (786-0 renal): > 25 µM | TGI (HOP-62 NSCLC): > 25 µM | TGI (SF-539 CNS): > 25 µM | TGI (NCI/ADR-RES ovarian): > 25 µM | TGI (HS 578T breast): > 25 µM | TGI (UO-31 renal): > 25 µM | TGI (MDA-MB-231 breast): > 25 µM | TGI (HCT-116 colon): > 25 µM | TGI (M14 melanoma): > 25 µM | TGI (HCT-15 colon): > 25 µM | TGI (RPMI-8226 leukemia): > 25 µM | TGI (MDA-N): > 25 µM | TGI (SW-620 colon): > 25 µM | TGI (HT29 colon): > 25 µM | TGI (BT-549 breast): > 25 µM | TGI (SNB-75 CNS): 15.2 µM | TGI (SN12C renal): > 25 µM | TGI (DU-145 prostate): > 25 µM | TGI (OVCAR-3 ovarian): > 25 µM | TGI (SNB-19 CNS): > 25 µM | TGI (ACHN renal): > 25 µM

CC(=O)c1cccc(NC(=O)/C(=N\NC(=S)NN)C2C(=O)Nc3ccccc3S2=O)c1 (stereo not drawn)
TGI (MDA-MB-435): > 100 µM | TGI (A498 renal): > 100 µM | TGI (SK-MEL-2 melanoma): > 100 µM | TGI (UACC-62 melanoma): > 100 µM | TGI (NCI-H23 lung): > 100 µM | TGI (CCRF-CEM leukemia): > 100 µM | TGI (SF-295 CNS): > 100 µM | TGI (KM12 colon): > 100 µM | TGI (EKVX NSCLC): > 100 µM | TGI (HL-60(TB) leukemia): > 100 µM | TGI (K-562 leukemia): > 100 µM | TGI (TK-10 renal): > 100 µM | TGI (UACC-257 melanoma): > 100 µM | TGI (T-47D breast): > 100 µM | TGI (SK-OV-3 ovarian): > 100 µM | TGI (NCI-H522 lung): > 100 µM | TGI (HOP-92 NSCLC): > 100 µM | TGI (MOLT-4 leukemia): > 100 µM | TGI (MCF7 breast): > 100 µM | TGI (RXF 393 renal): > 100 µM | TGI (CAKI-1 renal): > 100 µM | TGI (SR leukemia): > 100 µM | TGI (IGROV1 ovarian): > 100 µM | TGI (MALME-3M melanoma): > 100 µM | TGI (OVCAR-8 ovarian): > 100 µM | TGI (OVCAR-5 ovarian): > 100 µM | TGI (A549 NSCLC): > 100 µM | TGI (SK-MEL-5 melanoma): > 100 µM | TGI (LOX IMVI melanoma): > 100 µM | TGI (NCI-H226 lung): > 100 µM | TGI (SF-268 CNS): > 100 µM | TGI (786-0 renal): > 100 µM | TGI (HOP-62 NSCLC): > 100 µM | TGI (SF-539 CNS): > 100 µM | TGI (NCI/ADR-RES ovarian): > 100 µM | TGI (HS 578T breast): > 100 µM | TGI (UO-31 renal): > 100 µM | TGI (MDA-MB-231 breast): > 100 µM | TGI (HCT-116 colon): > 100 µM | TGI (M14 melanoma): > 100 µM | TGI (RPMI-8226 leukemia): > 100 µM | TGI (MDA-N): > 100 µM | TGI (SW-620 colon): > 100 µM | TGI (U251 CNS): > 100 µM | TGI (PC-3 prostate): > 100 µM | TGI (HT29 colon): > 100 µM | TGI (BT-549 breast): > 100 µM | TGI (SNB-75 CNS): > 100 µM | TGI (SK-MEL-28 melanoma): > 100 µM | TGI (SN12C renal): > 100 µM | TGI (OVCAR-3 ovarian): > 100 µM | TGI (SNB-19 CNS): > 100 µM | TGI (ACHN renal): > 100 µM
